# Data taken from patent US11712429B2, “Low eructation composition and methods for treating and/or preventing cardiovascular disease in a subject with fish allergy/hypersensitivity” (Amarin Pharmaceuticals Ireland Limited, priority 2010, dated 2023).
# Columns and labels:
# [1] = system: subjects with age-associated impairment (AAMI); experiment: CDR computerized cognitive test battery, 6-week placebo-controlled dose-ranging study; format: in vivo, human
# Method: A single center, double blind, randomized, parallel-group, placebo controlled dose-ranging study of E-EPA in subjects with age-associated impairment (AAMI) was performed. The primary goal was to examine the effect of ethyl-EPA versus placebo on cognitive performance in subjects with AAMI as measure by the power of attention tasks in a computerized test batter over a period of 6 weeks. Secondary objectives were to:
# (1) examine the effect of E-EPA versus placebo over 6 weeks on the following tests in the computerized cognitive battery: Continuity of attention tasks; Quality of working memory tasks; Quality of episodic memory tasks; Speed of attention tasks;
# The study plan was to enroll 96 subjects who would be randomly allocated to 1 of 4 possible treatment groups for 6 weeks, in a balanced block design (24 subjects per group), as follows: • 1. 1 g ethyl-EPA daily • 2. 2 g ethyl-EPA daily • 3. 4 g ethyl-EPA daily • 4. Placebo (paraffin oil) daily
# Ethyl-EPA was provided as 500 mg soft gel capsules providing ethyl-EPA of >96% purity, 0.25% to 0.38% by weight ethyl octadecatetraenoate, 0.075% to 0.15% by weight ethyl nonaecapentaenoate, 0.25% to 0.35% by weight ethyl arachidonate, 0.3% to 0.4% by weight ethyl eicosatetraenoate (ETA-E), 0.075% to 0.15% ethyl heneicosapentaenoate and 0.2% dl-[…]-tocopherol as an antioxidant. Matching placebo capsules contained […] of liquid paraffin and 0.2% dl-[…]-tocopherol. The placebo group was further randomized so that an equal number of subjects (8) was allocated 1 g, 2 g or 4 g placebo. Study drug was taken twice daily (BID) as a divided dose (e.g. for the 1 g dose, 500 mg was given in the morning and a further 500 mg was given in the evening) with a light snack or meal.
# The study consisted of a screening visit, a training visit and 4 study visits. At the screening visit, subjects' eligibility was determined through cognitive tests (verbal paired associated learning [PAL] subscale, vocabulary subtest, Memory Assessment Clinics Questionnaire [MAC-Q], mini mental state evaluation [MMSE] and MINI [mini international neuropsychiatirc interview; sections 1 and 2 of Diagnostic and Statistical Manual of Mental Disorders, 4th Ed. (DSM-IV) plus dysthymia]), haematology, clinical chemistry and 12-lead electrocardiogram (ECG). At the training visit, subjects were shown how to use the CDR computerized system. Subjects took study drug for 6 weeks and on Days 0, 14, 28 and 42, subjects underwent the CDR cognitive test battery.
# A selection of tasks from the CDR computerized cognitive assessment system were administered (Appendix 8 of protocol) at Visit 2 (training visit), Visit 3 (baseline), Visit 4 (Day 14), Visit 5 (Day 28) and Visit 6 (Day 42). Parallel forms of the tests were presented at each testing session. All tasks were computer-controlled, the information presented on high resolution monitors, and the responses recorded via a response model containing 2 buttons 1 marked ‘no’ the other ‘yes’. Five CDR composite scores were used as the primary/secondary outcome variables.
# Summary statistics were provided for the ITT and Study PP Populations separately for all composite scores, major and supportive variables. Summary statistics were performed for both the unadjusted and difference from baseline data (i.e. the difference from the time matched pre-dose assessments on Day 0). Summary statistics were calculated by treatment, day and time-point. The summary statistics comprised n, mean, median, SD, standard error of mean (SEM), minimum and maximum values.
# Difference from baseline data for each major variable was evaluated by an Analysis of Covariance (ANCOVA) using SAS® PROC MIXED Version 8.2.
# Fixed effects for treatment, day, time point, treatment by day, treatment by time point, treatment by day by time-point were fitted. Subject within treatment was fitted as a repeated effect using the repeated statement. The compound symmetry covariance structure was used. […]
# [2] = Essential fatty acid (EFA) measurements in plasma and RBC, AAMI study; format: in vivo, human
# Method: (3) assess the potential dose-effect relationship of E-EPA on the cognitive endpoints by measurement of essential fatty acids in plasma and red blood cell membranes. 94 subjects were randomized. Blood samples (10 mL) were collected at Visit 1 (screening) and at Visits 4, 5 and 6. Analysis was performed by MSR Lipid Analysis, Scottish Crop Research Institute, Dundee, UK. The screening sample acted as baseline for the EFA measurements. Lipid was extracted from plasma, serum and RBC suspensions and converted into fatty acid methyl esters which were analyzed by gas chromatography to give fatty acid profiles as micrograms fatty acid per gram of sample (μgFA/g) and normalized area percent. The CDR computerized system has been used to measure the effects of pharmaceuticals on cognitive function in a variety of clinical trials. Efficacy was assessed by a battery of cognition tests designed by CDR. Safety data were analyzed by Quanticate. RBC and plasma EFA data were collected at baseline, Day 14, 28 and 42 and summarized by visit for each treatment group. Change from baseline and percent change from baseline were also summarized. ANCOVA comparison of ethyl-EPA dose groups and ethyl-EPA versus placebo was performed.
# [3] = system: individuals with Huntington disease; experiment: Huntington disease trial (TREND-HD): non-fasting triacylglycerols and total cholesterol; format: in vivo, human
# Text: Eligible study participants provided written consent. […] The outcome measure of this study was the change in non-fasting triacylglycerol (TG) levels in those on AMR101 compared to those on placebo. Changes in lipid levels were compared using an analysis of covariance (ANCOVA) with treatment group as the factor of interest, site as a stratification factor, and baseline value as a covariate. All individuals who received study medication were included in the safety analysis. For each type of adverse event, the treatment groups were compared regarding the occurrence of at least one event using Fisher's exact test.
# [4] = system: individuals with Huntington disease; experiment: Huntington disease trial (TREND-HD): total motor score 4 of the Unified Huntington's Disease Rating Scale; format: in vivo, human
# Text: Eligible study participants provided written consent.
# [5] = design: species or system human; conditions: in vivo
# Method: A phase I, multiple dose pharmacokinetic study in healthy male volunteers was carried out at a single center. Twenty-four subjects were divided into two treatment groups of 12 subjects each (groups A and B). Both groups received the same total daily dose of AMR101 but the dosing regiments were different. All subjects received a single oral dose of 2 g AMR101 on Day 1. Treatment Group A received 28 continuous once daily doses of 2 g AMR101. Treatment Group B received 27 continuous twice daily doses of 1 g AMR101 and a single dose of 2 g of AMR101 on day 30.
# Levels of EPA and other essential fatty acids were determined in plasma and red blood cells. Blood samples for pharmacokinetic analysis were taken at the following time points for Treatment groups A and B:
# Days 9, 16, 23: pre morning dose;
# Days 37, 44, 58: post last dose.
# A first Interim Report presents the following pharmacokinetic results for Treatment Group B:
# Red cell—Day 1 (Pre-dose and 36 h), Day 30 (1 h post-dose), Day 37, Day 44, Day 58.
# [6] = system: patients with fasting triglyceride levels ≥500 mg/dL; experiment: Phase 3 12-week double-blind study: treatment-emergent adverse events; format: in vivo, human; conditions: 12 weeks
# Method: A multi-center, placebo-controlled randomized, double-blind, 12-week study with an open-label extension was performed to evaluate the efficacy and safety of AMR101 in patients with fasting triglyceride levels ≥500 mg/dL. The primary objective of the study was to determine the efficacy of AMR101 2 g daily and 4 g daily, compared to placebo, in lowering fasting TG levels in patients with fasting TG levels ≥500 mg/dL and ≤1500 mg/dL (≥5.65 mmol/L and ≤16.94 mmol/L). Approximately 240 patients were randomized at approximately 50 centers in North America, South America, Central America, Europe, India, and South Africa. The Phase 3, multi-center study consisted of 3 study periods: (1) A 6- to 8-week screening period that includes a diet and lifestyle stabilization and washout period and a TG qualifying period; (2) A 12-week, double-blind, randomized, placebo-controlled treatment period; and (3) A 40-week, open-label, extension period. After confirmation of qualifying fasting TG values, eligible patients entered a 12-week, randomized, double-blind treatment period. At Visit 4 (Week 0), patients were randomly assigned to 1 of the following treatment groups: • AMR101 2 g daily, • AMR101 4 g daily, or • Placebo. Eligible patients were randomly assigned at Visit 4 (Week 0) to receive orally AMR101 2 g daily, AMR101 4 g daily, or placebo for the 12-week double-blind treatment period. AMR101 was provided in 1 g liquid-filled, oblong, gelatin capsules. The matching placebo capsule was filled with light liquid paraffin and contained 0 g of AMR101. During the double-blind treatment period, patients took 2 capsules (AMR101 or matching placebo) in the morning and 2 in the evening for a total of 4 capsules per day. Patients in the AMR101 2 g/day treatment group received 1 AMR101 1 g capsule and 1 matching placebo capsule in the morning and in the evening. Patients in the AMR101 4 g/day treatment group received 2 AMR101 1 g capsules in the morning and evening. The efficacy variable for the open-label extension period was percent change in fasting TG from extension baseline to end of treatment. Safety assessments included adverse events, clinical laboratory measurements (chemistry, hematology, and urinalysis), 12-lead electrocardiograms (ECGs), vital signs, and physical examinations Top line results of the study are shown in FIGS. 3 and 4. Adverse events are shown in Table 9 by comparison with placebo and those experienced by subjects taking commercially available mixture of E-EPA and E-DHA (Lovaza).
# subjects with AAMI = conditions: 50 mg, cited from earlier work
structure (smiles),measurement,setting,value
"CC/C=C\C/C=C\C/C=C\C/C=C\C/C=C\CCCC(=O)OCC [AMR101, all-cis eicosa-5,8,11,14,17-pentaenoic acid ethyl ester]",Choice Reaction Time,"[1]; 1 and 4 g ethyl-EPA on Day 42, versus placebo",some trends for benefit
same,Continuity of Attention,"[1]; 2 g ethyl-EPA, only visible in the ITT population",overall decrease
same,"Speed of Memory and subtasks (Spatial and Numeric Working Memory Speeds, Word and Picture Recognition Speed)","[1]; Ethyl-EPA vs placebo, F-ratio statistics",no differences in performance
same,Digit Vigilance Targets Detected,"[1]; active treatment versus placebo, no obvious treatment-related pattern",isolated decreases
same,Self-rated Calmness,[1]; active treatment vs placebo,no difference in ratings
same,Power of Attention,"[1]; ethyl-EPA 1, 2, 4 g daily vs placebo, 6 weeks, ANCOVA",no statistically significant effect of treatment
same,Choice Reaction Time,"[1]; ethyl-EPA 1 g and 2 g on Day 28, versus placebo, no clear treatment-related pattern",statistically significant benefits
same,Quality of Working Memory,"[1]; ethyl-EPA 1 g and 2 g versus placebo on Days 14 and 28, judged due to chance",isolated statistically significant decreases
same,Self-rated Contentment,"[1]; ethyl-EPA 2 g on Day 28, judged unlikely treatment-related",statistically significant decreases in ratings
same,Quality of Episodic Secondary Memory,"[1]; ethyl-EPA versus placebo at various time-points, judged unlikely to be treatment effect",statistically significant decreases
same,Self-rated Alertness,[1]; ethyl-EPA vs placebo,no apparent difference in ratings
same,Continuity of Attention,"[1]; ethyl-EPA vs placebo, 6 weeks",did not show a difference
same,"Reaction times in the attention tasks (Power of Attention, Simple Reaction Time, Choice Reaction Time)","[1]; post-hoc analysis, ethyl-EPA 4 g vs corresponding placebo",improved the subjects' reaction times
same,Percent Fatty Acid Change from Baseline: AA,"[2]; 4 g dose, plasma, 6 weeks",−21.9%
same,Percent Fatty Acid Change from Baseline: DGLA,"[2]; 4 g dose, plasma, 6 weeks",−39.4%
same,Percent Fatty Acid Change from Baseline: DHA,"[2]; 4 g dose, plasma, 6 weeks",−17.5%
same,Percent Fatty Acid Change from Baseline: DPA,"[2]; 4 g dose, plasma, 6 weeks",+147%
same,"EPA, DPAn-3 and EPA/AA ratio plasma and RBC values","[2]; baseline to Day 42, 1, 2, and 4 g treatment groups",increased substantially
same,"AA, DHA and DGLA values","[2]; change from baseline, data not shown",decreased substantially
same,Total cholesterol reduction,"[3]; 1 gram twice/day, after 6 months, baseline 204 mg/dL, p=0.009 vs placebo",9.5 mg/dL
same,decrease in TGs,"[3]; 1 gram twice/day, after 6 months, non-fasting, baseline 171, p=0.007 vs placebo",26 mg/dL
same,Change in triglycerides after 6 months (mean mg/dL ± SD),"[3]; 1 gram twice/day, baseline 171 ± 108, p .007",-25.8 ± 89.1 mg/dL
same,Change in total cholesterol after 6 months (mean mg/dL ± SD),"[3]; 1 gram twice/day, baseline 204 ± 41.4, p .009",-9.5 ± 28.6 mg/dL
same,Change in triglycerides after 12 months (mean mg/dL ± SD),"[3]; second 6 months open-label, p 0.66",-17.7 ± 86.7 mg/dL
same,Change in total cholesterol after 12 months (mean mg/dL ± SD),"[3]; second 6 months open-label, p 0.95",-5.6 ± 25.5 mg/dL
same,Change in total motor score 4 at 12 months (mean),"[4]; All Study Participants n = 316, baseline 25.2, p 0.02",0.0
same,Change in total motor score 4 at 6 months (mean),"[4]; All Study Participants n = 316, baseline 25.2, p 0.20",0.2
same,Change in total motor score 4 at 12 months (mean),"[4]; Study Participants with CAG < 45, n = 221, baseline 24.9, p 0.004",−1.2
same,Change in total motor score 4 at 6 months (mean),"[4]; Study Participants with CAG < 45, n = 221, baseline 24.9, p 0.70",0.0
same,plasma lipid EPA levels at 48 hours post-administration,[5]; po,remaining above baseline
same,Tmax,"[5]; male, human",4.64 h
same,time of maximum plasma lipid EPA values,"[5]; male, human, po",5 h
same,Diarrhea,"[6]; 2 g/day, N = 76",4 (5.3) n (%)
same,Dyspepsia,"[6]; 2 g/day, N = 76",1 (1.3) n (%)
same,Eructation,"[6]; 2 g/day, N = 76",1 (1.3) n (%)
same,Hypertension,"[6]; 2 g/day, N = 76",4 (5.3) n (%)
same,Infection,"[6]; 2 g/day, N = 76",2 (2.6) n (%)
same,Nausea,"[6]; 2 g/day, N = 76",5 (6.6) n (%)
same,Skin rash,"[6]; 2 g/day, N = 76",1 (1.3) n (%)
same,Subjects with any TEAE,"[6]; 2 g/day, N = 76",27 (35.5) n (%)
same,Diarrhea,"[6]; 4 g/day, N = 77",1 (1.3) n (%)
same,Dyspepsia,"[6]; 4 g/day, N = 77",1 (1.3) n (%)
same,Eructation,"[6]; 4 g/day, N = 77",0 (0.0) n (%)
same,Hypertension,"[6]; 4 g/day, N = 77",1 (1.3) n (%)
same,Infection,"[6]; 4 g/day, N = 77",4 (5.2) n (%)
same,Nausea,"[6]; 4 g/day, N = 77",1 (1.3) n (%)
same,Skin rash,"[6]; 4 g/day, N = 77",0 (0.0) n (%)
same,Subjects with any TEAE,"[6]; 4 g/day, N = 77",28 (36.4) n (%)
CN[C@@H](C)C/C=C/c1cncc(OC(C)C)c1 [Ispronicline],"Power of Attention, mean","subjects with AAMI; Day 21, SD=61.22, placebo mean=28.25",-32.54 ms
same,benefit to Power of Attention (vs placebo),"subjects with AAMI; Day 21 of repeated dosing, subjects with AAMI",61 ms
